SMILES strings stand for the structures.

From ChEMBL document CHEMBL3507680, “University of Dundee, Gates Library screen for HepG2 cell viability” come the findings set out here.

The nature of the data set: Human HepG2 cell viability assay in 384 well format. The arrangement: dose 125 nL, time 70.5 hour; cytotoxicity at 70.5 h: concentration not given beside the values. Format: toxicity, cell-based. To be noted: HepG2 cells, read-out: Inhibition.
As to `Cc1nn(C(C)(C)C)c(C)c1C(=O)NCC1(C(N)=O)CCOCC1`, the cytotoxicity at 70.5 h is -8.76%. Next, `c1cnc(N2CCO[C@@H]3CN(Cc4ccoc4)C[C@@H]3C2)nc1`: 4.32%; `CN(C)C(=O)C1OC2(CCN(C(=O)c3ccco3)CC2)c2ccccc21` (stereo not given): -16.7%; `Cc1cccc(CN2CCCC(O)(CNCCN3CCCCC3)C2=O)c1` (stereo not given): 2.73%. The figure for `Cc1nn(C)c2cn(CC(=O)N3CCN(c4ccccc4)CC3)nc12` is 7.34%. Consider `O=C(Cc1ccccn1)N1CCC2(CC1)CN(c1ccccn1)CCO2`, for which the cytotoxicity at 70.5 h was -6.92%.

Consider `CCc1c(C(=O)N2C[C@H]3CC[C@@H]2CN(c2cnccn2)C3)csc1C`, for which the cytotoxicity at 70.5 h was -6.26%. The figure for `Cc1noc(C2CN(Cc3ccc4c(c3)CCO4)C2)n1` is -11.7%; for `CCn1cnnc1CNC(=O)N1CCOC(c2ccc(Cl)cc2)C1` (stereo not given) it is -13.5%; for `COc1cc(C#N)ccc1OCC(=O)N(C1CC1)C(C)c1ccco1` (stereo not given) it is -9.56%. Consider `CS(=O)(=O)c1ccc(OCCNCc2c(F)cccc2F)cc1`, for which the cytotoxicity at 70.5 h is -3.48%. The figure for `CCOc1ccc2[nH]c(=O)c(CN3CCC(n4cnnc4)CC3)cc2c1` is -4.91%. Next, `Cc1cccc(CO[C@@H]2C[C@H]3CN(C(=O)c4cnccn4)CCN3C2)n1`: -8.15%. The figure for `Cn1ccnc1CN1CCC(Cc2ccccn2)CC1` is 17.2%; for `CCc1ncc(C(=O)N(CCOC)Cc2ccccc2F)cn1` it is -2.26%; for `COc1cccc2ccc(CN3CCN(c4ncccc4C)CC3)nc12` it is -7.71%. `COc1cc(C)c2c(c1C)C[C@@H](C(C)C(=O)O)CC2` (stereo not given in full): the cytotoxicity at 70.5 h was -3.12%. As to `O=C1CC(c2ccncc2)C2(CCN(CCc3ccccc3)CC2)N1` (stereo not given), the cytotoxicity at 70.5 h was -6.87%. The figure for `Cc1cc(-c2cnc(NC3CC3)nc2-c2ccoc2C)on1` is -5.1%. Next, `Cc1cnc(CN2C[C@H]3C[C@H](Oc4ccccc4)C[C@H]3C2)cn1`: 34.2%; `O=C(NC1CCCCNC1=O)c1cc2ccccc2[nH]c1=O` (stereo not given): -15.7%; `CCCC1(CO)CCCN(C(=O)CNC(C)=O)C1` (stereo not given): -10.4%. Next, `CN(C)Cc1cc(=O)n2c(n1)CN(Cc1ccco1)CCC2`: -4.34%; `CN1CCOC(C)(C(=O)N2CCSCC2)C1` (stereo not given): -4.76%; `CN1CCC(N2Cc3nc(N)ncc3C2=O)CC1`: -11.6%. `Cn1cnc2cc(CCC(=O)Nc3n[nH]c(C4CC4)n3)ccc21`: the cytotoxicity at 70.5 h was 17.9%. Next, `CCN(C(=O)c1nc2c(s1)CCCN2S(C)(=O)=O)C(C)C`: 13.1%; `O=C(c1ccco1)N1CCOCC2(C1)CN(c1ccccc1)C(=O)CO2` (stereo not given): -5.76%. As for `Cc1cc(C(=O)N2C[C@@H]3CCCO[C@@H]3[C@H](N3CCOCC3)C2)c(C)[nH]1`, the cytotoxicity at 70.5 h is -12.4%.

`CC(C)CC(=O)N1C[C@@H]2CCN(c3cnccn3)C[C@@H]2C1`: the cytotoxicity at 70.5 h was -5.35%. Next, `Cn1cnc2c1CCN(CC(=O)NC1CCCCNC1=O)C2` (stereo not given): 15.2%; `O[C@H]1[C@H](n2cc(-c3ccccc3)nn2)c2ccccc2C12CCNCC2`: 2.04%; `O=C(c1ccc(Cl)cc1F)N1CCC(Cn2cc(CO)nn2)CC1`: -5.57%. The figure for `CC(C)(C)c1cc(CN2CC[C@@H](NC(=O)c3cccnc3)[C@H](O)C2)n[nH]1` is 0.738%. Next, `COC(C(=O)N1CCN(c2cccc(Cl)c2)C(=O)C1)c1ccccc1` (stereo not given): -7.64%; `CC(C)N(CC(N)=O)Cc1csc(C(C)(C)C)n1`: 3.87%. For `c1ccc(Cn2ccnc2CN2CCOC(Cn3cccn3)C2)cc1` (stereo not given), the cytotoxicity at 70.5 h was 2.05%. `COCC1CN(C(=O)c2cccc(C)n2)Cc2ncnn2C1` (stereo not given): the cytotoxicity at 70.5 h worked out at 17.7%. Next, `Cc1nnc([C@@H]2CC[C@@H]3[C@@H](CCN3C3CCOCC3)O2)o1`: -3.43%; `CCCS(=O)(=O)NC1CCN(c2cccc(F)c2C#N)CC1`: -19.1%; `COc1cccc(-n2nnc(C(=O)N3CCCC3)c2C)c1`: -13.2%. In the case of `CC(C)COC(=O)N1CCN(C(=O)c2ccc3nccn3c2)CC1`, the cytotoxicity at 70.5 h amounted to 30.9%. The figure for `O=C(C1CC(F)(F)C1)N1C[C@@H]2CN(Cc3ccoc3)CCO[C@@H]2C1` is -3.45%; for `Cc1ncsc1C(=O)NCCCN1CCCCCC1=O` it is -7.13%; for `CCc1nnc(CN2CCCC(Cn3nc(C)nc3C)C2)o1` (stereo not given) it is -11.6%. Next, `COc1cccc(COC(C)C(=O)NC2CCN(CC(N)=O)CC2)c1` (stereo not given): -7.36%; `O=C1N(Cc2ccccc2)C[C@H]2CN(Cc3ccccc3Cl)CCN12`: -1.14%; `COc1c(CNC2CCc3cc(F)ccc32)c(C(C)C)nn1C` (stereo not given): 16.8%. Next, `CCc1nc(CC(=O)N2CCCC2Cn2cccn2)cs1` (stereo not given): 2.11%.

Turning to `CC(NC(=O)N1CCCN(Cc2cccs2)CC1)c1cccnc1` (stereo not given), the cytotoxicity at 70.5 h is -16.5%. Next, `COCCN1CC2(CCOCC2)c2cc(NC(=O)C3CC=CC3)ccc21`: 28.4%; `CC(=O)N1C[C@H](c2cc(O)nc(C)n2)[C@@H](c2ccccc2F)C1`: -2.65%. The figure for `COc1ccc(F)cc1CN(CC(N)=O)C(C)C` is -3.68%; for `Cc1cccc(NC(=O)C(C)Oc2ccc3c(c2)OCO3)n1` (stereo not given) it is -3.5%. Consider `Cc1cc(C2CCCN(C(=O)CN3CCN(C)CC3)C2)n[nH]1` (stereo not given), for which the cytotoxicity at 70.5 h was -11.8%. Take `c1cnc(NCc2noc3c2CN(CCN2CCCC2)CC3)nc1`: the cytotoxicity at 70.5 h is -7.61%. The figure for `O=C(NCCc1cccc(Cl)c1)C1CCOCC1` is 0.784%; for `Cc1ccc(C(=O)NCC(O)CN2CCCC2=O)c(C)c1` (stereo not given) it is -1.64%; for `CCN(CC)C(=O)CCNc1cncc(-n2nc(C)cc2C)n1` it is -1.19%. Turning to `Cc1nccc(-c2cccc(NCC(=O)N3CCOC(C)C3)c2)n1` (stereo not given), the cytotoxicity at 70.5 h is -3.45%. The figure for `Cc1ccc(N2CCCC3(CCN(C(=O)c4sccc4C)C3)C2)nn1` (stereo not given) is -4.03%; for `CCCN1CCC(c2nc3ccc(-c4ccncc4)cn3n2)CC1` it is 19.7%. Next, `Cc1c[nH]c(C(=O)N2C[C@H]3CC[C@@H]2CN(Cc2cscn2)C3)n1`: -15.6%; `COCCN(C)c1ccc(NCc2cscn2)nc1`: 24.9%. Next, `Cc1oncc1C(=O)N1CC[C@H]2[C@@H]1CCC(=O)N2CC1CCOCC1`: -1.77%. Consider `Cc1nc2c(c(NC3CC3)n1)CCN(C(=O)C(C)(C)O)CC2`, for which the cytotoxicity at 70.5 h worked out at 2.5%.

Regarding `CCN(Cc1cc(F)c(OC)c(Cl)c1)Cc1noc(CC(C)C)n1`, the cytotoxicity at 70.5 h was -10.5%. Regarding `CNC(=O)c1cccnc1NCc1ccc(Cn2ccnc2)cc1`, the cytotoxicity at 70.5 h was 34.2%. `COc1ccc(CNc2cccnc2-n2cccn2)cc1OC`: the cytotoxicity at 70.5 h was -14.2%. Next, `COc1c(CNC2CCc3ccccc32)c(C(C)C)nn1C` (stereo not given): -16.4%.
